We go through one molecule from patent publication US11484543B2, “Compositions and methods for diagnosing and treating diseases and disorders associated with mutant KCNJ5” (The Rockefeller University, priority 2017, dated 2022).

This experiment deals with CYP11B2 (aldosterone synthase) expression, H295R cells expressing KCNJ5^G151R. Nature of the experiment: Real-time PCR of CYP11B2 in H295R cells transfected with KCNJ5^G151R. The class given is cell-based, human. To be noted: 5, 20 or 50 μM for 18 h; p=0.0006 at 20 μM. As for the experimental part:
H295R cells were cultured in DMEM/F12, HEPES (Gibco) supplemented with 2.5% Ultroser G (Pall Biosepra), 1% ITS+ Premix (Corning) and 1% Penicillin/Streptomycin (Gibco). Plasmids were purified using the Endofree Maxi Kit (Qiagen). […] 3×10^6 cells were transfected with 3 μg pIRES eGFP containing no insert, WT or mutant KCNJ5 using an Amaxa Nucleofector I (program P-20) and the Nucleofector Kit R (Lonza). Cells were allowed to recover briefly in RPMI 1640 medium (Gibco). […] After an additional 18 h, RNA was harvested using the RNeasy Mini Kit (Qiagen) following the manufacturer's instructions. 300 ng RNA were transcribed using the Quantitect Reverse Transcription Kit (Qiagen). Expression levels of CYP11B2 and GAPDH were quantified in triplicates in a 7300 Real-Time PCR System (Applied Biosystems) using the Taqman Gene Expression Master Mix and assays Hs01597732_m1 (CYP11B2) or HS02758991_g1 (GAPDH) (all Applied Biosystems). DDCT values were calculated by normalization of DCT values, using the average DCT of vehicle treated empty vector-transfected cells as a reference.
This cell line is derived from a human adrenocortical carcinoma and represents a commonly used in vitro model of zona glomerulosa aldosterone production (Wang et al. 2012, Horm. Metab. Res. 44:245-250). […]
(Real-time PCR tracks product formation cycle by cycle.)

As to `CC[C@H]1OC(=O)[C@H](C)[C@@H](O[C@H]2C[C@@](C)(OC)[C@@H](O)[C@H](C)O2)[C@H](C)[C@@H](O[C@@H]2O[C@H](C)C[C@H](N(C)C)[C@H]2O)[C@](C)(O)C[C@@H](C)/C(=N\OCOCCOC)[C@H](C)[C@@H](O)[C@]1(C)O` [Roxithromycin, roxithromycin], the “expression of CYP11B2” value is recorded as “inhibited expression of CYP11B2 in a dose-dependent fashion”.
